Columns and labels:
Format in all cases: functional
[1] = molecular target: T1, Steroid hormone receptor ERR1 (Homo sapiens) (UniProt P11474); test: Fold activation of estrogen-related receptor alpha at 100 nM in cell-based reporter gene assay
T1 sequence (whole entry): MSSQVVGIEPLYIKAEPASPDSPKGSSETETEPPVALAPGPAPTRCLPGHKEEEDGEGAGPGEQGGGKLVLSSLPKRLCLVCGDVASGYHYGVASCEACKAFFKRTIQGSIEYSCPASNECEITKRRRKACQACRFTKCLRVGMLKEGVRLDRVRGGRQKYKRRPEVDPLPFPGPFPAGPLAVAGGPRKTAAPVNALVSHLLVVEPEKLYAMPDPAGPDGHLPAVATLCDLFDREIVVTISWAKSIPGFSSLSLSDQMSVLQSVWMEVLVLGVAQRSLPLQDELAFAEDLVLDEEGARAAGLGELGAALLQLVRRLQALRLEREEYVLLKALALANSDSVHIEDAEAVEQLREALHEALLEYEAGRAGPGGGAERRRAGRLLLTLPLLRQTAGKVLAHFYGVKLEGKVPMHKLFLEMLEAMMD

[2] = molecular target: T2, Estrogen-related receptor gamma (Homo sapiens) (UniProt P62508); test: Fold activation of estrogen-related receptor gamma at 100 nM in cell-based reporter gene assay
T2 sequence (whole entry): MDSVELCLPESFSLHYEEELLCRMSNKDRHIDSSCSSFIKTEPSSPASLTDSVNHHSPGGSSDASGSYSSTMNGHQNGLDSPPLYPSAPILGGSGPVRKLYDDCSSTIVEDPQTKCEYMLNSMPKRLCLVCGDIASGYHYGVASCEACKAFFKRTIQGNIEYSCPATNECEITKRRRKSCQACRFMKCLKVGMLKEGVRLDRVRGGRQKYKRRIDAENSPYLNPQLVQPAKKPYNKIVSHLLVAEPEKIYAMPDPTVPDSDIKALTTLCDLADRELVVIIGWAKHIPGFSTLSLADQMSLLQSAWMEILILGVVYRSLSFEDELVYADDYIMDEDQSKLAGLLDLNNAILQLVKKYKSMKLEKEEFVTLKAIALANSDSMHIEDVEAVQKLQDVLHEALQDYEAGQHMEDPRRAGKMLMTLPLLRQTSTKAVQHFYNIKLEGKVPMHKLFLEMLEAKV

[3] = molecular target: T3, Steroid hormone receptor ERR2 (Homo sapiens) (UniProt O95718); test: Fold activation of estrogen-related receptor beta at 100 nM in cell-based reporter gene assay
T3 sequence (whole entry): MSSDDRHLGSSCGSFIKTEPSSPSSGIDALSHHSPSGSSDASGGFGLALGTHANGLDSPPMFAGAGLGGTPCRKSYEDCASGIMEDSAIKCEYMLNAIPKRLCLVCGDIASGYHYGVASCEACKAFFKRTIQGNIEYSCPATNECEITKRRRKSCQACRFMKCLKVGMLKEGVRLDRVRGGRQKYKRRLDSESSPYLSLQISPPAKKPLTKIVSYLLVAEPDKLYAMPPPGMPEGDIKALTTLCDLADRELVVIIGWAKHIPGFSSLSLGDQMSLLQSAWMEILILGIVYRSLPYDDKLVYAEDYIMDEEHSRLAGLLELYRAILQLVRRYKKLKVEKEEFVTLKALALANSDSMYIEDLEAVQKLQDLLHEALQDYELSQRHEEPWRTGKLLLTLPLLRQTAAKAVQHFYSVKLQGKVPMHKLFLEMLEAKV

Activity [1]: 1.1 | Activity [2]: 0.8 | Activity [3]: 1
SMILES: C[C@]12CC[C@@H]3c4ccc(O)cc4CC[C@H]3[C@@H]1CC[C@@H]2O
